Source: the NIST ThermoML archive (doi:10.1016/j.jct.2016.04.014)

Assay: xn = mol fraction of the nth substance listed
Conditions: Liquid, Vibrating tube method

CCCCCCCC [octane] + CCCCCCC
mass density [kg/m3]
Conditions | 100 kPa | 500 kPa | 5000 kPa | 10000 kPa | 15000 kPa | 20000 kPa | 25000 kPa | 30000 kPa | 35000 kPa | 40000 kPa
293.15 K, x2 = 0.25 | 698.22 | 698.6 | 702.4 | 706.4 | 710.2 | 713.8 | 717.2 | 720.4 | 723.6 | 726.6
293.15 K, x2 = 0.5002 | 693.9 | 694.3 | 698.1 | 702.2 | 706 | 709.7 | 713.2 | 716.5 | 719.6 | 722.7
293.15 K, x2 = 0.7502 | 689 | 689.4 | 693.4 | 697.5 | 701.4 | 705.1 | 708.7 | 712 | 715.2 | 718.4
303.15 K, x2 = 0.25 | 690.1 | 690.4 | 694.5 | 698.8 | 702.8 | 706.6 | 710.2 | 713.6 | 716.9 | 720.1
303.15 K, x2 = 0.5002 | 685.6 | 686 | 690.2 | 694.5 | 698.6 | 702.5 | 706.1 | 709.6 | 712.9 | 716.1
303.15 K, x2 = 0.7502 | 680.7 | 681 | 685.3 | 689.7 | 693.9 | 697.8 | 701.6 | 705.1 | 708.5 | 711.7
313.15 K, x2 = 0.25 | 681.8 | 682.2 | 686.5 | 691.1 | 695.4 | 699.4 | 703.2 | 706.8 | 710.2 | 713.5
313.15 K, x2 = 0.5002 | 677.3 | 677.7 | 682.1 | 686.8 | 691.1 | 695.2 | 699.1 | 702.7 | 706.2 | 709.6
313.15 K, x2 = 0.7502 | 672.2 | 672.6 | 677.2 | 681.9 | 686.3 | 690.5 | 694.4 | 698.1 | 701.7 | 705.1
323.15 K, x2 = 0.25 | 673.4 | 673.8 | 678.5 | 683.4 | 687.9 | 692.1 | 696.1 | 699.9 | 703.6 | 707
323.15 K, x2 = 0.5002 | 668.7 | 669.2 | 674 | 678.9 | 683.6 | 687.9 | 692 | 695.8 | 699.5 | 703
323.15 K, x2 = 0.7502 | 663.5 | 664 | 668.9 | 674 | 678.7 | 683.1 | 687.3 | 691.2 | 694.9 | 698.5
333.15 K, x2 = 0.25 | 664.9 | 665.4 | 670.4 | 675.6 | 680.4 | 684.9 | 689.2 | 693.2 | 696.9 | 700.6
333.15 K, x2 = 0.5002 | 660.2 | 660.6 | 665.8 | 671.1 | 676 | 680.6 | 684.9 | 689 | 692.8 | 696.5
333.15 K, x2 = 0.7502 | 654.8 | 655.3 | 660.6 | 666 | 671.1 | 675.8 | 680.2 | 684.3 | 688.2 | 692
353.15 K, x2 = 0.25 | 647.5 | 648.1 | 653.9 | 659.9 | 665.4 | 670.5 | 675.2 | 679.6 | 683.7 | 687.7
353.15 K, x2 = 0.5002 | 642.5 | 643.1 | 649.1 | 655.2 | 660.8 | 666 | 670.8 | 675.3 | 679.5 | 683.6
353.15 K, x2 = 0.7502 | 636.9 | 637.4 | 643.6 | 649.9 | 655.7 | 661 | 665.9 | 670.4 | 674.7 | 678.9
373.15 K, x2 = 0.25 | – | 630.3 | 637.1 | 644.1 | 650.3 | 656 | 661.2 | 666.1 | 670.7 | 675.1
373.15 K, x2 = 0.5002 | – | 625 | 632 | 639.2 | 645.6 | 651.4 | 656.7 | 661.7 | 666.3 | 670.8
373.15 K, x2 = 0.7502 | – | 619 | 626.3 | 633.6 | 640.2 | 646.2 | 651.7 | 656.7 | 661.5 | 666
